{"source": "paper PMC6610938", "about": "(BMC Microbiology, 2019)", "key": {"[1]": {"test_system": "T1, Pseudomonas aeruginosa ATCC 27853", "T1 construct": "ATCC 27853", "experiment": "microbe, parasite or virus in culture", "set-up": "CLSI broth microdilution MIC in cation-adjusted Mueller Hinton broth, standard inoculum", "details": "ATCC27853, inoculum 5 x 10^5 CFU/mL, run 1", "description": "(§1) Each strain was tested at the standard inoculum of 5 × 10^5 colony forming units (CFU)/mL, as well as at inocula lower (5 × 10^4) and greater (5 × 10^6) than the standard inoculum. Antibacterial susceptibility testing for each P. aeruginosa isolate obtained from the four isolate sources listed above was performed using standard CLSI broth microdilution methodology using cation-adjusted Mueller Hinton broth."}, "[2]": {"test_system": "T2, Pseudomonas aeruginosa CLB 24228", "T2 construct": "CLB 24228", "experiment": "microbe, parasite or virus in culture", "set-up": "CLSI broth microdilution MIC in cation-adjusted Mueller Hinton broth, standard inoculum", "details": "CLB24228, inoculum 5 x 10^5 CFU/mL, run 1", "description": "as §1"}}, "data": [{"smiles": "C[C@@H](O)[C@H]1C(=O)N2C(C(=O)O)=C(SCCNC=N)C[C@H]12", "note": "[IMI, imipenem]", "values": [{"measurement": "MIC", "setting": "[1]", "value": 2, "unit": "µg/mL"}, {"measurement": "MIC", "setting": "[2]", "value": 32, "unit": "µg/mL"}]}]}
